Assay results taken from patent US5041438A, “Method for treating retroviral infections with benzodiazepine compounds” (Hoffmann-La Roche Inc., priority 1989, dated 1991).
“Also recorded” adds a separate entry of the source. Read-outs that look alike come from different tables or passages of the source.

What was measured:
[1] = tested on: HIV; settings: in most patients; cited from earlier work
[2] = tested on: HIV/HTLV III, RF strain; assay: p24 viral antigen capture assay (ELISA) in C8166 CD4+ T-cells; format: cell-based; settings: for anti-viral activity in p24 viral antigen capture assay: result in words
Procedure: Compound I was tested for anti-viral activity in the p24 viral antigen capture assay.
The Enzyme Linked Immuno-absorbant Assay (ELISA) was used to test Compound I for anti-HIV activity by measuring virus replication in CD4^+ T-lymphocytes by detecting viral p24 antigen released into the tissue culture supernatant of infected cells.
High titer virus stocks [HIV/HTLV III, RF strain]were grown in H9 cells in RPMI-1640 (Flow Laboratories) supplemented with 10% fetal calf serum, penicillin (100 IU/ml) and streptomycin (100 μg/ml). Cell debris was removed by low speed centrifugation and the supernatant stored at -70° C. until required. The host cell line used in the anti-viral assays was the C8166 CD4^+ T-cell line which is particularly susceptible to infection with HIV. Cells were incubated with 10 TCID50, HIV/HTLV III (RF) at 37° C. for 90 minutes and then washed three times with PBS. Cell aliquots (2×10^5) were resuspended in 1.5 ml growth medium in 6 ml tubes and appropriate amounts of Compound I added and incubated at 37° C. At 72 hours post-infection, the supernatants from the cell cultures were assayed for p24 antigen. The antigen capture ELISA used was purchased from Coulter (Luton, UK). The assays were carried out on supernatants taken from infected cell cultures using the procedure described by the manufacturer. In each assay a positive control was included, together with a supernatant control taken from uninfected cells. The plates were read using the appropriate spectrophotometric detection system. Results of two separate assays are:
ID50 is defined as the dose of compound required to inhibit viral replication by 50 percent. […] Approximately 0.1 μM and 6 μM of Compound I yields 50 percent inhibition of viral replication. 0.003 μM AZT provided 50 percent inhibition of viral replication in one test conducted. ddC provided 50 percent inhibition at a concentration of 0.01 μM in one test.

[3] = tested on: HIV-1 NIT strain; assay: inhibition of HIV-cytopathic effect and of viral RNA and antigen production in infected CD4+ CEM cells; format: cell-based; settings: MOI=1, 3 and 6 days, FIGS. 2 and 3
Procedure: High titer virus stocks (HIV-1 NIT strain) were grown in CD4^+ CR1O cells in RMPI-1640 media (Gibco Laboratories) supplemented with 10% fetal calf serum and 0.1 mg/ml Gentamicin. The collected media were filtered through a 0.8 Micron filter and virus isolates were concentrated 100 fold and stored at -80° C.
CD4^+ CEM cells, propagated in the same medium, were incubated for 60 minutes at 37° C. with diluted stock virus at MOI=1. Cells were washed three times with phosphate buffered saline and resuspended in the medium at 2×10^5 cells/ml. Various quantities of Compound I were added. Three days after infection, numbers of live cells were counted by trypan blue exclusion [Mitsuya, et al. Proc. Natl. Acad. Sci. 83:1911 (1986)]. […] Cells stained with the fluorescent antibody were counted using a fluorescence microscope and the results were expressed as percentage of the total number of cells counted [(Hedenskog et al., J. Med. Virol. 1:9325 (1986)].
The viral RNA in infected cells was quantitized with an RNA-RNA hybridization/reversible target capture procedure [Gillespie et al. Molecular and Cellular Probes, 2:73 (1989)]. […] 2×10^5 live cells, determined by trypan blue exclusion, were used in each assay.
For cytotoxicity testing, uninfected CEM cells were treated with Compound I at similar concentrations and toxicity of the compound was measured by the live-cell count. […]

[4] = tested on: COS cells; assay: parallel cytotoxicity assay: SeAP expression under RSV-LTR in COS cells; format: cell-based; settings: RSV-LTR not responsive to TAT, FIG. 1
Excerpt: (§1) FIG. 1 Illustrates anti-TAT activity of Compound I. COS cells are co-transfected with TAT and Secreted Alkaline Phosphatase (SeAP) genes. The SeAP gene, under the control of the HIV-LTR (responsive to TAT activation) or the RSV-LTR (unresponsive to TAT action) serves as a monitor or reporter gene. SeAP activity in the HIV-LTR combination but not the RSV-LTR combination serves as a measure of TAT activity. Cells containing the RSV-LTR co-transfected gene combination serve as an indicator of the non-specific toxicity of added test compounds. The black bars represent the percent inhibition of SeAP activity by Compound I when the SeAP gene is under the control of HIV-LTR. The hatched bars represent the effect of Compound I on SeAP activity when the SeAP gene is regulated by RSV-LTR. […] The figure includes results from three separate assays.
(§2) Compound I was tested for anti-TAT activity in an anti-TAT assay described in copending patent application, now U.S. Ser. No. 07/428,555 filed Oct. 10, 1989, filed on the same day as the instant application and hereby incorporated by reference. […] The anti-TAT activity is measured by the percent inhibition of SeAP gene expression under the control of HIV-LTR.

[5] = tested on: TAT; assay: anti-TAT assay: SeAP reporter expression under HIV-LTR in COS cells co-transfected with TAT; format: cell-based; settings: 1, 10 and 100 μM, added 24 h post transfection, assayed 48 h later, FIG. 1
Excerpt: as §1, §2

Nc1ccn([C@H]2CC[C@@H](CO)O2)c(=O)n1 [ddC]
virustatic range (body weight dose) [1]: 0.005-0.25 mg/kg body weight | IC50 ([2]; Human immunodeficiency virus 1, p24 antigen, C8166 cells, 72 h post-infection, second of two separate assays, read-out: ID50 (dose of compound required to inhibit viral replication by 50 percent)): 10 nM | anti-viral activity in p24 viral antigen capture assay [2]: active in the p24 assay

Cc1cn([C@H]2C[C@H](N=[N+]=[N-])[C@@H](CO)O2)c(=O)[nH]c1=O [AZT]
IC50 ([2]; Human immunodeficiency virus 1, p24 antigen, C8166 cells, 72 h post-infection, first of two separate assays, read-out: ID50 (dose of compound required to inhibit viral replication by 50 percent)): 3 nM | anti-viral activity in p24 viral antigen capture assay [2]: active in the p24 assay; also recorded: exhibits anti-viral activity

O=C1CN=C(c2ccc[nH]2)c2cc(Cl)ccc2N1 [Compound I, 7-chloro-5-(2-pyrryl)-3H-1,4-benzodiazepin-2(1H)-one]
anti-HIV activity (HIV-cytopathic effect, viral RNA and antigen production) [3]: inhibition of HIV-cytopathic effect and viral RNA and antigen production | IC50 ([2]; Human immunodeficiency virus 1, C8166, 72 h, read-out: ID50 (dose of compound required to inhibit viral replication by 50 percent), p24 antigen, C8166 cells, 72 h post-infection, first of two separate assays): 100 nM | IC50 ([2]; Human immunodeficiency virus 1, C8166, 72 h, read-out: ID50 (dose of compound required to inhibit viral replication by 50 percent), p24 antigen, C8166 cells, 72 h post-infection, second of two separate assays): 6000 nM | anti-viral activity in p24 viral antigen capture assay [2]: positive results; also recorded: exhibits anti-viral activity | nonspecific cytotoxicity (SeAP gene expression under control of RSV-LTR) [4]: does not exhibit nonspecific toxicity; also recorded: does not exhibit nonspecific cytotoxicity | anti-TAT activity (inhibition of SeAP gene expression under control of HIV-LTR) [5]: specifically inhibits TAT action; also recorded: exhibits anti-TAT activity; also recorded: specific inhibitor of TAT
